Laboratory results as given in patent US20250326732A1 (Pretzel Therapeutics, Inc., priority 2021, published 2025).

What follows are compounds tested against POLRMT (Homo sapiens (Human), UniProt O00411) (assay: homogeneous TR-FRET assay of mitochondrial transcription (inhibition of POLRMT)). Conditions: 7.5 nM POLRMT, 15 nM TFB2M, 30 nM TFAM, 0.5 nM DNA template, 500 μM NTPs, 37° C. for 60 minutes.
Type: biochemical
Method: The ability of some compounds of the present invention to inhibit POLRMT were determined in a homogeneous TR-FRET Assay using high-throughput screening in a 384-well plate format. […] Detection of the product is facilitated by hybridization of two DNA-oligonucleotide probes to specific and adjacent sequences within the RNA product sequence. Upon annealing of the probes, two fluorophores are coupled directly to an acceptor nucleotide probe (ATTO647, 5′), or introduced via a coupled streptavidin with a biotinylated donor nucleotide probe (Europium cryptate) that is brought into sufficient proximity to serve as a fluorescence-donor-acceptor pair. Thus, a FRET signal at 665 nm is generated upon excitation at 340 nm.
The DNA template is restriction linearized proximal to the promotor 3′-end (pUC-LSP). […] No nucleotide triphosphate mix is added to negative control samples. Microplates with compounds to be tested in the assay are prepared from 10 mM compound stocks in 100% DMSO, equal amounts of DMSO without any compound are added to positive control and negative control samples.
During the incubation, a mix of the detection reagents is prepared in a buffer such that the enzymatic reaction is terminated due to chelating of Mg-ions and increased ionic strength, containing 50 mM Tris-HCl (pH 7.5), 700 mM NaCl, 20 mM EDTA, and 0.01% (w/v) Tween-20. Europium-streptavidin is pre-incubated with a 200-fold molar excess of a random sequence oligonucleotide to block unspecific binding of oligo, for two hours at ambient temperature in the dark. Afterwards, the blocked Europium-streptavidin is kept on ice until use.
At the end of the enzymatic reaction time, 5 μL detection oligo mix in the detection buffer is added, and assay plates are mixed and kept at ambient temperature for one hour, protected from light. The concentration of the Acceptor nucleotide oligo (e.g., ATTO647N-5′-[…]-3′) and Donor nucleotide oligo (e.g., bio-5′-[…](-bio)[…]-bio-3′) in each assay well is 1 nM, and 3 nM, respectively.
After incubation with oligo mix, 5 μL of pre-blocked Europium-streptavidin reagent is dispensed to each assay well, assay plates are again mixed and kept at ambient temperature for one hour, protected from light.
The generated signal is measured with BMG Pherastar microtiter plate reader with a TRF light unit, using excitation at 340 nm, an integration time of 200 μs, and a delay time of 100 μs, before detection at 620 nm and 665 nm. The ratio of donor- and acceptor-fluorescence is used as a measure of the generated transcript product (i.e. enzymatic activity).

Sequence of POLRMT (O00411 42-1230): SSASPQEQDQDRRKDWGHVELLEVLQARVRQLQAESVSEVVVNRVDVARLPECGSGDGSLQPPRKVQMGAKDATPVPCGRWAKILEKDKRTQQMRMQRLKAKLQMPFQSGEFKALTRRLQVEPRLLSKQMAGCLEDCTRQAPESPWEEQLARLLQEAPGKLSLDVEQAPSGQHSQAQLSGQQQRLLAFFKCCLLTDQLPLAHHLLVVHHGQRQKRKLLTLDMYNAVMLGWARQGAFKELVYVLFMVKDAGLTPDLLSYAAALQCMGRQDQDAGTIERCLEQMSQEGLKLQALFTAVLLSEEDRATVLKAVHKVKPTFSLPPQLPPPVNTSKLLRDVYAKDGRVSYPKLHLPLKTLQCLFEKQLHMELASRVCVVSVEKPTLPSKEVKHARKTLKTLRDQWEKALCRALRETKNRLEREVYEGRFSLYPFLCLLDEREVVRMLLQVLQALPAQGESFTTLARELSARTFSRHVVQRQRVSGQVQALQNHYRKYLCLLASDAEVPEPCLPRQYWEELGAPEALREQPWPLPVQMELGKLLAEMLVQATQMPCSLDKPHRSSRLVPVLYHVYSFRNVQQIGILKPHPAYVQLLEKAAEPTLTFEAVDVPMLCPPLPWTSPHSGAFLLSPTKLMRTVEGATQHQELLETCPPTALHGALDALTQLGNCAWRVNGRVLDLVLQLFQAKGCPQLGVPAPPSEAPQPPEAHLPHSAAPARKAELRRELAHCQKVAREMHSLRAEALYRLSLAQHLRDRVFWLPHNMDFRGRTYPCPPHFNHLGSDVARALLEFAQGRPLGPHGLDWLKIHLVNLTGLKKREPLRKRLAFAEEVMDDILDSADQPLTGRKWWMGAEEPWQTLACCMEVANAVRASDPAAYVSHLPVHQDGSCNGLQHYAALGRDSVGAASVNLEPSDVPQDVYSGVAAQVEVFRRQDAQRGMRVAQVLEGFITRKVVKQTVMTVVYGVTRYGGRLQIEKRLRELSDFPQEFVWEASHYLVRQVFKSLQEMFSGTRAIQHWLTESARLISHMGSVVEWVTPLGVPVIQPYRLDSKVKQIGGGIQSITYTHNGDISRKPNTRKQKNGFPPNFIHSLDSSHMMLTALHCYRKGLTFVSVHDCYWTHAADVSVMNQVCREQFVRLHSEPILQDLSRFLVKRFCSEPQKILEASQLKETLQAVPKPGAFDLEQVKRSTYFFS

How did the IC50 turn out when “3-methoxy-2-((2-oxo-4-phenyl-2H-chromen-7-yl)amino)propanamide [Example 198]” was run?
The IC50 was 2000 nM.

Which IC50 does the source give for `Cc1ccccc1-c1cc(=O)oc2cc([C@H]3C[C@H]3C(=O)O)ccc12` (racemic) [Example 226, (cis)-2-(2-oxo-4-(o-tolyl)-2H-chromen-7-yl)cyclopropane-1-carboxylic acid] here?
Its IC50 is 400 nM.

For `Cc1ccccc1-c1cc(=O)oc2cc([C@@H]3C[C@H]3C(=O)O)ccc12` (relative stereo) [Example 227, (trans)-2-(2-oxo-4-(o-tolyl)-2H-chromen-7-yl)cyclopropane-1-carboxylic acid], which IC50 is on record?
Its IC50 is 3000 nM.

How did the IC50 turn out when `CNC(=O)[C@@H]1C[C@@H]1c1ccc2c(-c3ccccc3C)cc(=O)oc2c1` (relative stereo) [Example 231, (cis)-N-methyl-2-(2-oxo-4-(o-tolyl)-2H-chromen-7-yl)cyclopropane-1-carboxamide] was run?
The IC50 was 400 nM.

`CNC(=O)[C@@H]1C[C@H]1c1ccc2c(-c3ccccc3C)cc(=O)oc2c1` (relative stereo) [Example 232, (trans)-N-methyl-2-(2-oxo-4-(o-tolyl)-2H-chromen-7-yl)cyclopropane-1-carboxamide] was tested. Which IC50 did it give?
Its IC50 is 2000 nM.

With `Cc1ccccc1-c1cc(=O)oc2cc([C@H]3C[C@H]3C(=O)N(C)C)ccc12` (relative stereo) [Example 234, (cis)-N,N-dimethyl-2-(2-oxo-4-(o-tolyl)-2H-chromen-7-yl)cyclopropane-1-carboxamide] as the compound, how does the IC50 read?
Its IC50 is 3000 nM.

Which IC50 does the source give for `Cc1ccccc1-c1cc(=O)oc2cc([C@H]3C[C@H]3C(N)=O)ccc12` (relative stereo) [Example 235, (cis)-2-(2-oxo-4-(o-tolyl)-2H-chromen-7-yl)cyclopropane-1-carboxamide] here?
Its IC50 is 2000 nM.

How did the IC50 turn out when `Cc1ccccc1-c1cc(=O)oc2cc([C@@H]3C[C@H]3C(=O)N(C)C)ccc12` (relative stereo) [Example 236, (trans)-N,N-dimethyl-2-(2-oxo-4-(o-tolyl)-2H-chromen-7-yl)cyclopropane-1-carboxamide] was run?
Its IC50 is 7000 nM.

With `Cc1ccccc1-c1cc(=O)oc2cc([C@@H]3C[C@H]3C(N)=O)ccc12` (relative stereo) [Example 238, chiral-(trans)-2-(2-oxo-4-(o-tolyl)-2H-chromen-7-yl)cyclopropane-1-carboxamide] as the compound, how does the IC50 read?
The IC50 was 3000 nM.

For `Cc1ccccc1-c1cc(=O)oc2cc([C@@H]3C[C@H]3C(N)=O)ccc12` (relative stereo) [Example 239, chiral-(trans)-2-(2-oxo-4-(o-tolyl)-2H-chromen-7-yl)cyclopropane-1-carboxamide], which IC50 is on record?
Its IC50 is 900 nM.

`Cc1ccccc1-c1cc(=O)oc2cc([C@@H]3C[C@H]3C(=O)N(C)C)ccc12` (relative stereo) [Example 240, chiral-(trans)-N,N-dimethyl-2-(2-oxo-4-(o-tolyl)-2H-chromen-7-yl)cyclopropane-1-carboxamide] was tested. Which IC50 did it give?
The IC50 was 8000 nM.

How did the IC50 turn out when `Cc1ccccc1-c1cc(=O)oc2cc([C@@H]3C[C@H]3C(=O)N(C)C)ccc12` (relative stereo) [Example 241, chiral-(trans)-N,N-dimethyl-2-(2-oxo-4-(o-tolyl)-2H-chromen-7-yl)cyclopropane-1-carboxamide] was run?
Its IC50 is 5000 nM.

With `CCOC(C)c1ccc2c(-c3ccc(F)cc3Cl)cc(=O)oc2c1` (single isomer, unassigned) [Example 41, 4-(2-chloro-4-fluorophenyl)-7-(1-ethoxyethyl)-2H-chromen-2-one] as the compound, how does the IC50 read?
Its IC50 is 1000 nM.

For `CCOC(C)c1ccc2c(-c3ccc(F)cc3Cl)cc(=O)oc2c1` (single isomer, unassigned) [Example 42, 4-(2-chloro-4-fluorophenyl)-7-(1-ethoxyethyl)-2H-chromen-2-one], which IC50 is on record?
Its IC50 is 6000 nM.

How did the IC50 turn out when `Cc1ccccc1-c1cc(=O)oc2cc(CC(C)C(=O)N3CCCCC3)ccc12` (single isomer, unassigned) [Example 62, 7-(2-methyl-3-oxo-3-(piperidin-1-yl)propyl)-4-(o-tolyl)-2H-chromen-2-one] was run?
The IC50 was 80 nM.

`Cc1ccccc1-c1cc(=O)oc2cc(CC(C)C(=O)N3CCCCC3)ccc12` (single isomer, unassigned) [Example 63, 7-(2-methyl-3-oxo-3-(piperidin-1-yl)propyl)-4-(o-tolyl)-2H-chromen-2-one] was tested. Which IC50 did it give?
The IC50 was 3000 nM.

How did the IC50 turn out when `Cc1ccccc1-c1cc(=O)oc2cc(CC(C)C(=O)N(C)C)ccc12` (single isomer, unassigned) [Example 64, N,N,2-trimethyl-3-(2-oxo-4-(o-tolyl)-2H-chromen-7-yl)propanamide] was run?
Its IC50 is 300 nM.

For `Cc1ccccc1-c1cc(=O)oc2cc(CC(C)C(=O)N(C)C)ccc12` (single isomer, unassigned) [Example 65, N,N,2-trimethyl-3-(2-oxo-4-(o-tolyl)-2H-chromen-7-yl)propanamide], which IC50 is on record?
The IC50 was 17000 nM.

`CNC(=O)C(C)Cc1ccc2c(-c3ccccc3C)cc(=O)oc2c1` (single isomer, unassigned) [Example 66, N,2-dimethyl-3-(2-oxo-4-(o-tolyl)-2H-chromen-7-yl)propanamide] was tested. Which IC50 did it give?
The IC50 was 500 nM.

Which IC50 does the source give for `CNC(=O)C(C)Cc1ccc2c(-c3ccccc3C)cc(=O)oc2c1` (single isomer, unassigned) [Example 67, N,2-dimethyl-3-(2-oxo-4-(o-tolyl)-2H-chromen-7-yl)propanamide] here?
Its IC50 is 6000 nM.

`Cc1ccccc1-c1cc(=O)oc2cc(CC(C)C(N)=O)ccc12` (single isomer, unassigned) [Example 68, 2-methyl-3-(2-oxo-4-(o-tolyl)-2H-chromen-7-yl)propanamide] was tested. Which IC50 did it give?
The IC50 was 600 nM.

`Cc1ccccc1-c1cc(=O)oc2cc(CC(C)C(N)=O)ccc12` (single isomer, unassigned) [Example 69, 2-methyl-3-(2-oxo-4-(o-tolyl)-2H-chromen-7-yl)propanamide] was tested. Which IC50 did it give?
Its IC50 is 5000 nM.

`Cc1ccccc1-c1cc(=O)oc2cc(C(C)CC(=O)N3CCC[C@H](C(=O)O)C3)ccc12` (single isomer, unassigned) [Example 81] was tested. Which IC50 did it give?
Its IC50 is 1000 nM.

`Cc1ccccc1-c1cc(=O)oc2cc(C(C)CC(=O)N3CCC[C@H](C(=O)O)C3)ccc12` (single isomer, unassigned) [Example 82] was tested. Which IC50 did it give?
Its IC50 is 5000 nM.

For `Cc1ccccc1-c1cc(=O)oc2cc(CC(C)C(=O)N3CCC[C@H](C#N)C3)ccc12` (single isomer, unassigned) [Example 83], which IC50 is on record?
Its IC50 is 60 nM.

How did the IC50 turn out when `Cc1ccccc1-c1cc(=O)oc2cc(CC(C)C(=O)N3CCC[C@H](C#N)C3)ccc12` (single isomer, unassigned) [Example 84] was run?
The IC50 was 32000 nM.

`Cc1ccccc1-c1cc(=O)oc2cc(CC(C)C(=O)N3CCC[C@H](S(C)(=O)=O)C3)ccc12` (single isomer, unassigned) [Example 85] was tested. Which IC50 did it give?
The IC50 was 300 nM.

Which IC50 does the source give for `Cc1ccccc1-c1cc(=O)oc2cc(CC(C)C(=O)N3CCC[C@H](S(C)(=O)=O)C3)ccc12` (single isomer, unassigned) [Example 86] here?
Its IC50 is 5000 nM.

With `CCOC(=O)[C@H]1CCCN(C(=O)C(C)Cc2ccc3c(-c4ccccc4C)cc(=O)oc3c2)C1` (single isomer, unassigned) [Example 87] as the compound, how does the IC50 read?
The IC50 was 9000 nM.

With `CCOC(=O)[C@H]1CCCN(C(=O)C(C)Cc2ccc3c(-c4ccccc4C)cc(=O)oc3c2)C1` (single isomer, unassigned) [Example 88] as the compound, how does the IC50 read?
The IC50 was 90 nM.

For `Cc1ccccc1-c1cc(=O)oc2cc(CC(C)C(=O)N3CCC[C@H](C(N)=O)C3)ccc12` (single isomer, unassigned) [Example 89], which IC50 is on record?
The IC50 was 100 nM.

How did the IC50 turn out when `Cc1ccccc1-c1cc(=O)oc2cc(CC(C)C(=O)N3CCC[C@H](C(N)=O)C3)ccc12` (single isomer, unassigned) [Example 90] was run?
Its IC50 is 8000 nM.

`CNC(=O)[C@H]1CCCN(C(=O)C(C)Cc2ccc3c(-c4ccccc4C)cc(=O)oc3c2)C1` (single isomer, unassigned) [Example 92] was tested. Which IC50 did it give?
The IC50 was 200 nM.

Which IC50 does the source give for `CNC(=O)[C@H]1CCCN(C(=O)C(C)Cc2ccc3c(-c4ccccc4C)cc(=O)oc3c2)C1` (single isomer, unassigned) [Example 93] here?
The IC50 was 17000 nM.

Which IC50 does the source give for `Cc1ccccc1-c1cc(=O)oc2cc(CC(C)C(=O)N3CCC(C(=O)O)CC3)ccc12` (single isomer, unassigned) [Example 94, 1-(2-methyl-3-(2-oxo-4-(o-tolyl)-2H-chromen-7-yl)propanoyl)piperidine-4-carboxylic acid] here?
Its IC50 is 200 nM.

How did the IC50 turn out when `Cc1ccccc1-c1cc(=O)oc2cc(CC(C)C(=O)N3CCC(C(=O)O)CC3)ccc12` (single isomer, unassigned) [Example 95, 1-(2-methyl-3-(2-oxo-4-(o-tolyl)-2H-chromen-7-yl)propanoyl)piperidine-4-carboxylic acid] was run?
Its IC50 is 4000 nM.
